# Values of other authors as cited in article PMC11267572, “A Repurposed Drug Interferes with Nucleic Acid to Inhibit the Dual Activities of Coronavirus Nsp13” (ACS Chemical Biology, 2024).
# Test system: SARS-CoV-2 Omicron variant
# Set-up: method as in PMID 36899912
# Details: bronchial epithelial cells; cited from earlier work
smiles,measurement,value
O=C(NCc1ccc(Oc2ccccc2)cc1)c1nc(-c2cc(Br)c(O)c(Br)c2)no1 [IOWH-032],inhibition of viral replication,micromolar inhibition
